Among the data in BindingDB's records for doi:10.7270/Q2NG4P21 (Nmmlsc, 2009) are EC50 values, retold here.

One assay has as its target T1, Bcl-2-like protein 10 [11-204] (Homo sapiens, UniProt Q9HD36).
T1 construct: 11-204
T1 sequence (Q9HD36 whole entry): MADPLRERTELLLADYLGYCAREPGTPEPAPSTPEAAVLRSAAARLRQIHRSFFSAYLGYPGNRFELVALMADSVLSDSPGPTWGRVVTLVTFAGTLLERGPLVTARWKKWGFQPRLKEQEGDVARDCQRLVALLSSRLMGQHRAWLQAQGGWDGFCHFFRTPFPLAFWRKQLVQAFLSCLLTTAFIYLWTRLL
Briefly: inhibitors of Bim-Bcl-B binding, confirmation, biochemical, dose response, multiplexed HTS hits (AID 2077).
Settings: not given
`O=C1C(=Cc2ccco2)NC(=S)N1c1ccccc1` [(5E)-5-(furan-2-ylmethylidene)-3-phenyl-2-sulfanylideneimidazolidin-4-one] came in with an EC50 of 2.9 µM. That is a single-digit micromolar value.

The compound `CCN(CC)c1ccc(NC(=O)c2ccccc2Br)cc1S(=O)(=O)Nc1ccccc1OC` displayed an EC50 of 8.66 µM.

As for `O=C(Nc1nnc(COc2ccc(Cl)cc2)s1)c1ccco1` [N-[5-[(4-chloranylphenoxy)methyl]-1,3,4-thiadiazol-2-yl]furan-2-carboxamide], the EC50 was found to be 1.46 µM. This EC50 lies about 5.9-fold lower than the previous one.

`COc1ccc(N2C(=O)C(Cl)=C(Oc3cccc(OC)c3)C2=O)cc1` [3-chloro-4-(3-methoxyphenoxy)-1-(4-methoxyphenyl)-1H-pyrrole-2,5-dione] yielded a 50% effective concentration (EC50) of 0.61 µM.

The compound `O=C1NC(=O)C2(Cc3c(nc4ccccn4c3=O)N3CCCCCC32)C(=O)N1Cc1ccccc1` (centres undefined) [MLS000083668] displayed an EC50 of 6.4 µM.

Regarding `S=c1[nH]cc(-c2ccccc2)n1-c1ccccc1` [SMR000196363], the EC50 amounted to 0.32 µM.

`CC(=O)Nc1ccc(-n2cc(-c3ccccc3)[nH]c2=S)cc1` [MLS001001946]: the EC50 is 0.92 µM.

For `O=c1c2c(n3nnnc3n1Cc1ccccc1)-c1ccccc1CC21CCCC1` [MLS000030575], the EC50 came out at 3.57 µM. This EC50 lies about 3.9-fold higher than the previous one.

On to `Cc1ccc(C=NNC(=O)CSc2nnc(-c3ccc(Cl)cc3)n2-c2ccccc2)o1` [SMR000218122], for which the EC50 was 16.4 µM.

Still in this assay, the particulars now being: inactive by the depositor's call.
Compound `Clc1nc(NCc2cccnc2)nc(N2CCOCC2)n1` [MLS000121154] came in with an EC50 of 13.5 µM.

`O=C(NCc1ccccc1)c1ccc2nc(-c3ccco3)c(-c3ccco3)nc2c1` [2,3-bis(furan-2-yl)-N-(phenylmethyl)quinoxaline-6-carboxamide] gave an EC50 of 31.6 µM.

Take `COc1ccccc1-n1c(-c2ccccc2)c[nH]c1=S` [MLS001007615]: the EC50 turned out to be 24.4 µM. This EC50 and that of the compound before are within 1.5-fold of each other.

Take `O=c1[nH]c(O)c(Cc2ccc(-c3cc(Cl)ccc3[N+](=O)[O-])o2)c(=O)[nH]1`: the response was half-maximal at 36.5 µM (EC50). This EC50 and that of the compound before are within 1.5-fold of each other.

`Cc1cc(-c2cc(-c3ccc(Cl)cc3)nc(N)c2C#N)co1` [2-azanyl-6-(4-chlorophenyl)-4-(5-methylfuran-3-yl)pyridine-3-carbonitrile] displayed an EC50 of 15.2 µM.

Broadly, the EC50 is the concentration that produces a half-maximal response.
